Test results published in patent US20080161232A1, “C5a Receptor Antagonist” (JERINI AG, priority 2005, published 2008).
pIC50: −log10 of the molar value. Positions of bridges follow the written chain, without caps; N, C: chain ends. Non-standard residues stand in square brackets, D forms with d. Residues, ends and D or L forms follow the SMILES beside them. *: point of attachment. Phe(3,4-F2) = N[C@@H](Cc1ccc(F)c(F)c1)C(=O)O; Phe(3-Cl) = N[C@@H](Cc1cccc(Cl)c1)C(=O)O; Phe(4-F) = N[C@@H](Cc1ccc(F)cc1)C(=O)O; dPhe(2-Me) = Cc1ccccc1C[C@@H](N)C(=O)O; 1Nal = N[C@@H](Cc1cccc2ccccc12)C(=O)O; 2Nal = N[C@@H](Cc1ccc2ccccc2c1)C(=O)O; X10 = CCN(CC)[C@@H](Cc1ccccc1)C(=O)*; Acetyl(4-pyridyl) = O=C(Cc1ccncc1)*; Bta = N[C@@H](Cc1csc2ccccc12)C(=O)O; d(hCha) = N[C@H](CCC1CCCCC1)C(=O)O; Hyp = O=C(O)[C@@H]1C[C@@H](O)CN1; d(hLeu) = CC(C)CC[C@@H](N)C(=O)O; β3hF = N[C@H](CC(=O)O)Cc1ccccc1; Cha = N[C@@H](CC1CCCCC1)C(=O)O; Cit = NC(=O)NCCC[C@H](N)C(=O)O; NMeN = CN[C@@H](CC(N)=O)C(=O)O; dCha = N[C@H](CC1CCCCC1)C(=O)O; hLeu = CC(C)CC[C@H](N)C(=O)O; Nicotinoyl = O=C(c1cccnc1)*; Nle = CCCC[C@H](N)C(=O)O; Orn = NCCC[C@H](N)C(=O)O

What follows are compounds tested against T1, human C5aR(CD88) (Homo sapiens, UniProt P21730) (assay: Determination of the IC50 value in an enzyme release assay (functional assay, antagonistic activity)). Conditions: antagonistic activity; IC50 group in enzyme release assay, RBL cells expressing human C5aR(CD88); read-out: activity (group).
T1 construct: expressed in transfected cells; host or cells: rat basophilic leukemia cells (RBL)
T1 sequence (P21730 1-350): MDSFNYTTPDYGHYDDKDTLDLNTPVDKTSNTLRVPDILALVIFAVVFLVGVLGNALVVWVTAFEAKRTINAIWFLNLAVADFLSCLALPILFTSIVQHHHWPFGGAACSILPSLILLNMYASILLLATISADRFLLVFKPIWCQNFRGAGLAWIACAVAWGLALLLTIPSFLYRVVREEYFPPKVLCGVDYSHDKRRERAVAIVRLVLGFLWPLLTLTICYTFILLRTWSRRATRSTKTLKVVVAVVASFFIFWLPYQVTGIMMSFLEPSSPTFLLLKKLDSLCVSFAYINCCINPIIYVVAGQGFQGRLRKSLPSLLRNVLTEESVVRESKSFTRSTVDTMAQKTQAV
Assay type: cell-based
Compound `CC(C)CC[C@@H](NC(=O)[C@@H]1CCCN1C(=O)[C@H](CCCNC(N)=O)NC(=O)[C@H](Cc1ccccc1)NC(=O)c1cccnc1)C(=O)N[C@@H](Cc1csc2ccccc12)C(=O)N[C@@H](Cc1ccccc1)C(N)=O` [Compound 329, Fbn-Phe-Cit-Pro-hle-Bta-Phe-NH2] (Nicotinoyl-F[Cit]P[d(hLeu)][Bta]F-NH2) has a pIC50 of 6.70 to 7.30.
Work on `CC(C)CC[C@@H]1NC(=O)[C@H](Cc2ccc(F)cc2)NC(=O)[C@@H](CCC(C)C)NC(=O)[C@@H]2C[C@@H](O)CN2C(=O)[C@@H](NC(=O)[C@@H](N)Cc2ccccc2)CCCNC1=O` [Compound 363, H-Phe-[Orn-Hyp-hle-Pff-Hle]] (H-F[Orn][Hyp][d(hLeu)][Phe(4-F)][hLeu]; lactam 2-C) yielded a pIC50 of 6.70 to 7.30.
In the case of `CC(=O)N[C@@H](Cc1ccccc1)C(=O)N[C@H]1CCCNC(=O)[C@H](CCCN=C(N)N)NC(=O)[C@H](C)NC(=O)[C@@H](CC2CCCCC2)NC(=O)[C@@H]2CCCN2C1=O` [compound 48] (Ac-F[Orn]P[dCha]AR; lactam 2-C), the pIC50 was under 5.70.
In the case of `CCCC[C@@H]1NC(=O)[C@H](Cc2c[nH]c3ccccc23)NC(=O)[C@@H](CCC(C)C)NC(=O)[C@H](CO)NC(=O)[C@@H](NC(=O)[C@H](Cc2ccccc2)N(CC)CC)CCCNC1=O` [Compound 317, Def-[Orn-Ser-hle-Trp-Nle]] (X10-[Orn]S[d(hLeu)]W[Nle]; lactam 1-C), the pIC50 was 6.70 to 7.30.
Compound `CCCC[C@@H]1NC(=O)[C@H](Cc2c[nH]c3ccccc23)NC(=O)[C@@H](CC2CCCCC2)NC(=O)[C@H](CC(N)=O)N(C)C(=O)[C@@H](NC(=O)[C@H](Cc2ccccc2)NC(C)=O)CCCNC1=O` [Compound 184, Ac-Phe-[Orn-NMD-cha-Trp-Nle]] (Ac-F[Orn][NMeN][dCha]W[Nle]; lactam 2-C) has a pIC50 of 6.70 to 7.30.
`CC(=O)N[C@@H](Cc1ccccc1)C(=O)N[C@H]1CCCNC(=O)[C@H](Cc2ccccc2)NC(=O)[C@H](Cc2csc3ccccc23)NC(=O)[C@@H](CCC(C)C)NC(=O)[C@@H]2C[C@@H](O)CN2C1=O` [Compound 177, Ac-Phe-[Orn-Hyp-hle-Bta-Phe]] (Ac-F[Orn][Hyp][d(hLeu)][Bta]F; lactam 2-C) gave a pIC50 of 6.70 to 7.30.
For `CC(=O)N[C@@H](Cc1ccccc1)C(=O)N[C@@H](CCCN)C(=O)N1CCC[C@H]1C(=O)N[C@H](CC1CCCCC1)C(=O)N[C@@H](Cc1csc2ccccc12)C(=O)N[C@@H](Cc1ccc(F)c(F)c1)C(N)=O` [Compound 251, Ac-Phe-Orn-Pro-cha-Bta-Dff-NH2] (Ac-F[Orn]P[dCha][Bta][Phe(3,4-F2)]-NH2), the pIC50 was 7.30 to 7.70.
`CC(=O)N[C@@H](Cc1ccccc1)C(=O)N[C@@H](CCCN)C(=O)N1CCC[C@H]1C(=O)N[C@H](CC1CCCCC1)C(=O)N[C@@H](Cc1csc2ccccc12)C(=O)N[C@H](CC(N)=O)Cc1ccccc1` [Compound 250, Ac-Phe-Orn-Pro-cha-Bta-Bhf-NH2] (Ac-F[Orn]P[dCha][Bta][β3hF]-NH2) gave a pIC50 of 7.30 to 7.70.
For `CC(=O)N[C@@H](Cc1ccccc1)C(=O)N[C@@H](CCC(N)=O)C(=O)N1CCC[C@H]1C(=O)N[C@H](CC1CCCCC1)C(=O)N[C@@H](Cc1c[nH]c2ccccc12)C(=O)N[C@@H](Cc1ccccc1)C(N)=O` [Compound 89, Ac-Phe-Gln-Pro-cha-Trp-Phe-NH2] (Ac-FQP[dCha]WF-NH2), the pIC50 was 5.70 to 6.70.
`CCCC[C@@H]1NC(=O)[C@H](Cc2c[nH]c3ccccc23)NC(=O)[C@@H](CC2CCCCC2)NC(=O)[C@@H]2CCCN2C(=O)[C@@H](NC(=O)[C@H](Cc2ccccc2)NC(=O)Cc2ccncc2)CCCNC1=O` [Compound 325, Fbi-Phe-[Orn-Pro-cha-Trp-Nle]] ({Acetyl(4-pyridyl)}-F[Orn]P[dCha]W[Nle]; lactam 2-C) was tested, and the pIC50 was 6.70 to 7.30.
For `CCCC[C@@H]1NC(=O)[C@H](Cc2c[nH]c3ccccc23)NC(=O)[C@@H](CC2CCCCC2)NC(=O)[C@@H]2CCCN2C(=O)[C@@H](NC(=O)[C@H](Cc2ccccc2)NC(=O)CON=CC(O)C(O)C(O)C(O)CO)CCCNC1=O` (single isomer, unassigned) [Compound 334, Fck-Phe-[Orn-Pro-cha-Trp-Nle]], the pIC50 was 6.70 to 7.30.
For `CC(=O)N[C@@H](Cc1ccccc1)C(=O)N[C@H]1CCCNC(=O)[C@H](CCCNC2=NCCN2)NC(=O)[C@H](Cc2c[nH]c3ccccc23)NC(=O)[C@@H](CC2CCCCC2)NC(=O)[C@@H]2CCCN2C1=O` [Compound 7, Ac-Phe-[Orn-Pro-cha-Trp-Arg(CH2CH2)]], the pIC50 was 5.70 to 6.70.
`CC(=O)N[C@@H](Cc1ccccc1)C(=O)N[C@@H](CCCN)C(=O)N1CCC[C@H]1C(=O)N[C@H](CC1CCCCC1)C(=O)N[C@@H](Cc1c[nH]c2ccccc12)C(=O)N[C@@H](CC1CCCCC1)C(N)=O` [Compound 65, Ac-Phe-Orn-Pro-cha-Trp-Cha-NH2] (Ac-F[Orn]P[dCha]W[Cha]-NH2) gave a pIC50 of 6.70 to 7.30.
Compound `CC(=O)N[C@@H](Cc1ccccc1)C(=O)N[C@H]1CCCNC(=O)[C@H](CCCCNC(=N)N)NC(=O)[C@H](Cc2c[nH]c3ccccc23)NC(=O)[C@@H](CC2CCCCC2)NC(=O)[C@@H]2CCCN2C1=O` [compound 8] has a pIC50 of 5.70 to 6.70.
`N[C@@H](Cc1ccccc1)C(=O)N[C@H]1CCCNC(=O)[C@H](Cc2ccccc2)NC(=O)[C@H](Cc2c[nH]c3ccccc23)NC(=O)[C@@H](CC2CCCCC2)NC(=O)[C@@H]2C[C@@H](O)CN2C1=O` [Compound 357, H-Phe-[Orn-Hyp-cha-Trp-Phe]] (H-F[Orn][Hyp][dCha]WF; lactam 2-C) was tested, and the pIC50 was 7.30 to 7.70.
Compound `CC(=O)N[C@@H](Cc1ccccc1)C(=O)N[C@@H](CCCN)C(=O)N1CCC[C@H]1C(=O)N[C@H](CCC(C)C)C(=O)N[C@@H](Cc1csc2ccccc12)C(=O)N[C@@H](Cc1cccc2ccccc12)C(N)=O` [Compound 270, Ac-Phe-Orn-Pro-hle-Bta-1Ni—NH2] (Ac-F[Orn]P[d(hLeu)][Bta][1Nal]-NH2) has a pIC50 of 6.70 to 7.30.
`CC(=O)N[C@@H](Cc1ccccc1)C(=O)N[C@@H](CCCN)C(=O)N1CCC[C@H]1C(=O)N[C@H](CCC1CCCCC1)C(=O)N[C@@H](Cc1c[nH]c2ccccc12)C(=O)N[C@@H](Cc1ccccc1)C(=O)O` [Compound 132, Ac-Phe-Orn-Pro-hch-Trp-Phe-OH] (Ac-F[Orn]P[d(hCha)]WF-OH) gave a pIC50 of 6.70 to 7.30.
`CCCC[C@@H]1NC(=O)[C@H](Cc2c[nH]c3ccccc23)NC(=O)[C@@H](Cc2ccccc2C)NC(=O)[C@@H]2CCCN2C(=O)[C@@H](NC(=O)[C@H](Cc2ccccc2)NC(C)=O)CCCNC1=O` [Compound 147, Ac-Phe-[Orn-Pro-omf-Trp-Nle]] (Ac-F[Orn]P[dPhe(2-Me)]W[Nle]; lactam 2-C) gave a pIC50 of 7.70 to 8.00.
For `CC(=O)N[C@@H](Cc1ccccc1)C(=O)N[C@@H](CCCN)C(=O)N1CCC[C@H]1C(=O)N[C@H](CC1CCCCC1)C(=O)N[C@@H](Cc1c[nH]c2ccccc12)C(=O)N[C@@H](Cc1cccc2ccccc12)C(N)=O` [Compound 94, Ac-Phe-Orn-Pro-cha-Trp-1Ni—NH2] (Ac-F[Orn]P[dCha]W[1Nal]-NH2), the pIC50 was 7.30 to 7.70.
`CC(C)CC[C@H]1NC(=O)[C@H](CO)NC(=O)[C@@H](NC(=O)[C@@H](N)Cc2ccccc2)CCCNC(=O)[C@H](Cc2ccccc2)NC(=O)[C@H](Cc2ccc(F)cc2)NC1=O` [Compound 389, H-Phe-[Orn-Ser-hle-Pff-Phe]] (H-F[Orn]S[d(hLeu)][Phe(4-F)]F; lactam 2-C) gave a pIC50 of 6.70 to 7.30.
In the case of `CC(=O)N[C@@H](Cc1ccccc1)C(=O)N[C@@H](CCCN)C(=O)N1CCC[C@H]1C(=O)N[C@H](CCC(C)C)C(=O)N[C@@H](Cc1cccc(Cl)c1)C(=O)N[C@@H](Cc1ccc2ccccc2c1)C(N)=O` [Compound 288, Ac-Phe-Orn-Pro-hle-Mcf-2Ni—NH2] (Ac-F[Orn]P[d(hLeu)][Phe(3-Cl)][2Nal]-NH2), the pIC50 was 6.70 to 7.30.
